Series [1] is described as follows: Stability of the compound in pH 5.5 buffer measured upto 96 hrs by LC-MS based mass spectrometric analysis. Conditions: pH 5.5, 96 h. The series is classed as physicochemical.
Series [2] deals with CWR22R. Put plainly: Antitumor activity against human 22Rv1 cells xenografted in Balb/c nude mouse assessed as tumor growth inhibition at 30 mg/kg, ip administered daily for 5 days and measured at day 34 relative to control. The series is classed as functional. Also on record: scale not given: the % may be the effect or the level left. To be noted: time 34 day.
In series [3] the test system is CWR22R. Put plainly: Antitumor activity against human 22Rv1 cells xenografted in Balb/c nude mouse assessed as tumor growth inhibition at 20 mg/kg, ip administered once in two days for three times and measured 1 day after the end of treatment relative to control. The series is classed as functional. To be noted: 22Rv1, 168 h, time 7 day, read-out: TGI.
The nature of series [4]: Acute toxicity in Wistar rat assessed as liver damage at 15 to 279 mg/kg, iv administered as pluronic F127 formulation and measured for 14 days. The series is classed as organism-based. To be noted: in vivo, 336 h, dose 15-279 mg/kg, time 14 day.
A short description of series [5]: Volume of distribution in Soviet Chinchilla rabbit at 8.1 mg/kg, iv administered as pluronic F127 formulation measured upto 72 hrs by high-performance liquid chromatography tandem mass spectrometric analysis. The series is classed as ADME, organism-based, Oryctolagus cuniculus. To be noted: in vivo.
Series [6] is described as follows: Chronic toxicity in rat assessed as hair loss at 15 to 18.45 mg/kg, iv administered as pluronic F127 formulation at 4 intervals for 21 days and observed 3 weeks post last injection. To be noted: in vivo, 2544 h, dose 15-18.45 mg/kg, time 106 day. The series is classed as organism-based.
The nature of series [7]: Chronic toxicity in rat assessed as increase in relative mass of liver at 15 to 22.5 mg/kg, iv administered as pluronic F127 formulation at 4 intervals for 21 days and observed 3 weeks post last injection relative to control. The series is classed as organism-based. To be noted: in vivo, 2544 h, dose 15-22.5 mg/kg, time 106 day.

The source of these data is ChEMBL document CHEMBL5131389, “PSMA-targeted small-molecule docetaxel conjugate: Synthesis and preclinical evaluation” (Eur J Med Chem, 2022).

With `CC(=O)O[C@@]12CO[C@@H]1C[C@H](O)[C@@]1(C)C(=O)[C@H](O)C3=C(C)[C@@H](OC(=O)[C@H](OC(=O)CCCc4cn(CCCNC(=O)[C@H](Cc5ccc(O)cc5)NC(=O)[C@H](Cc5ccccc5)NC(=O)CCC(=O)NCCCCCC(=O)N(CCCC[C@H](NC(=O)N[C@@H](CCC(=O)O)C(=O)O)C(=O)O)Cc5cccc(Cl)c5)nn4)[C@@H](NC(=O)OC(C)(C)C)c4ccccc4)C[C@@](O)([C@@H](OC(=O)c4ccccc4)[C@H]21)C3(C)C`, in series [1], the Stability result is on record as “Unstable”. Also, the Activity with CWR22R [2] is 80%; in series [4], “Toxic”; in series [6], “Non-Toxic”; in series [7], “Toxic”. Also, the inhibition in vivo at 20 mg/kg in the series with CWR22R [3] came to 78%. Also, the Vd in series [5] was 0.332 L/kg.
